Among the test systems are UACC-62 melanoma; SNB-75 CNS; PC-3 prostate; RPMI-8226 leukemia; CCRF-CEM leukemia; NCI-H522 lung; 786-0 renal; SK-OV-3 ovarian; NCI/ADR-RES ovarian; SNB-19 CNS.
Assay in all cases: growth of human tumour cells (NCI), 48 h

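Results reflect a 48-hour exposure of cells in 96-well plates to compound at five concentrations. Here, GI50 denotes the concentration required for 50% inhibition of growth. At the TGI there is no net growth.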 Some results are limits rather than exact numbers.

`Cc1ccc(-c2nc(N3CCNCC3)c3oc(-c4ccc(C)cc4)nc3n2)cc1`: the GI50 in the assay on UACC-62 melanoma is 13.3 µM; in the assay on SNB-75 CNS, 8.66 µM; in the assay on PC-3 prostate it was 1.77 µM; in the assay with RPMI-8226 leukemia, 2.48 µM; with CCRF-CEM leukemia it was 1.49 µM; in the assay on NCI-H522 lung, 14.2 µM. The GI50 was 1.69 µM in the assay with 786-0 renal, greater than 43.2 µM in the assay on SK-OV-3 ovarian, 2 µM with NCI/ADR-RES ovarian and 2.6 µM with SNB-19 CNS. For the same compound, the TGI is 28.6 µM in the assay with UACC-62 melanoma; greater than 32.1 µM in the assay on SNB-75 CNS; 3.43 µM in the assay with PC-3 prostate; 5.28 µM in the assay on RPMI-8226 leukemia; 4.04 µM in the assay with CCRF-CEM leukemia; 36.1 µM in the assay with NCI-H522 lung. Also, the TGI with 786-0 renal is 3.24 µM; in the assay with SK-OV-3 ovarian it was greater than 59.2 µM; with NCI/ADR-RES ovarian, 3.81 µM; with SNB-19 CNS, 7.02 µM.

These data come from PubChem BioAssay (NCI).
